Test results: PubChem BioAssay AID1996
Converted amounts (≈) assume the structure as drawn.

settings: buffer; pH 7.4; 200.0 µM

Structure (SMILES)	solubility kinetic [µg/mL]
CCCCNC(=O)N(C)c1nc2ccccc2s1	28.8 (≈ 109 µM)
CCc1ccc(Nc2ncnc3nc[nH]c23)cc1	> 35.9
Cc1cc(C)c(OCC(=O)OCC(=O)NC2CCCCCCC2)c(C)c1	23.5 (≈ 65 µM)
NC1=NC(=O)/C(=C/c2ccc(Cl)cc2Cl)S1	1.3 (≈ 4.76 µM)
CC1Cc2ccccc2N1C(=O)COC(=O)c1ccc([N+](=O)[O-])o1 (centres undefined)	> 49.5
COc1cc(N2C(=O)CC(=O)NC2=O)cc(OC)c1OC	40.7 (≈ 138 µM)
CCOc1ccc(-n2c(C)c(C(=O)OC)c3cc(O)ccc32)cc1	< 0.7
Cc1nc2ccccc2[nH]c1=O	> 24
O/N=C\c1ccccc1Oc1ccc(F)cc1	32.3 (≈ 140 µM)
O=C(Nn1cnc2ccccc2c1=O)c1ccc([N+](=O)[O-])cc1	> 46.5
COC(=O)C1=C(C)N(C)C(=S)NC1c1cc(OC)ccc1OC (centres undefined)	36.5 (≈ 108 µM)
O=C(Nc1ccccc1N1CCOCC1)c1ccncc1	> 42.5
N#Cc1c(-c2ccccc2Cl)c2c([nH]c1=O)-c1ccccc1OC2	11.6 (≈ 34.7 µM)
COc1ccc(N/C(=N/c2nc(C)cc(C)n2)NC(=O)c2ccccc2)cc1	0.3 (≈ 0.799 µM)
CC(OC(=O)c1cc2sccc2n1C)C(=O)NC(C)(C)C (centres undefined)	> 46.3
CC(C)(C)c1ccc(C(=O)N2CCCC2)s1	> 35.6
Cc1ccccc1C(=O)Nc1ccc(N(C)C)c2ccccc12	13.6 (≈ 44.7 µM)
O=C(NCCN1CCOCC1)C(Sc1ccccc1)c1ccccc1 (centres undefined)	> 53.5
CC(=O)N1CCN(CC(=O)Nc2cc(F)ccc2C)CC1	> 44
CCCn1c(=O)[nH]c(=O)c2[nH]cnc21	> 29.1

Structure (SMILES)	solubility kinetic [µg/mL]
Cc1ccc(C(=O)NCC(=O)NCc2ccc(Cl)cc2)s1	7.4 (≈ 22.9 µM)
Cc1cc(NC(=O)c2cccs2)no1	> 31.2
O=C(NCc1ccc(Cl)cc1)c1nccnc1CO	40.5 (≈ 146 µM)
Cc1onc(-c2ccccc2)c1CNC(=O)C1COc2ccccc2O1 (centres undefined)	46.2 (≈ 132 µM)
Cc1nc2ccccc2c(=O)n1NC(=O)c1ccccc1F	> 44.6
COc1ccc(CCNC(=O)c2cc(C3CC3)on2)cc1OC	> 47.5
Cc1ccc(N(CN2CCCC2=O)C(=O)c2ccccc2)cc1	> 46.3
CC(=O)c1ccccc1NC(=O)COC(=O)c1cc[n+]([O-])cc1	> 47.1
CC(C)n1c(/N=C/c2ccccc2O)nc2ccccc21	31.4 (≈ 112 µM)
CCc1ccc(NS(=O)(=O)c2ccc3c(c2)oc(=O)n3C)cc1	2.1 (≈ 6.32 µM)
COc1ccc(NC(=O)NCc2cccnc2)c(OC)c1	> 43.1
O=C(NC1CC(=O)c2sccc21)c1cccc(C(F)(F)F)c1 (centres undefined)	> 48.8
Cc1cc2c(NC3CCCCC3)ncnc2s1.Cl	15
Cc1ccc(-c2nc(CN3CCN(c4cnccn4)CC3)c(C)o2)o1	38.3 (≈ 113 µM)
N#Cc1cc(N2CCOCC2)nc2ccccc12	15.3 (≈ 63.9 µM)
CC(C)CCNC(=O)C1CC(=O)N(CCc2ccccc2)C1 (centres undefined)	> 45.4
CCCN1CCC(N(CCc2ccccc2)Cc2ccccc2)CC1	32.5 (≈ 96.6 µM)
CCCCS(=O)(=O)N1CCC(C(=O)Oc2ccc(Cl)cc2)CC1	1.7 (≈ 4.72 µM)
CC(C)(C)C(=O)Oc1cccc(Nc2ncnc3ccccc23)c1	34.1 (≈ 106 µM)
CCCOc1ccc(/C=C/c2c([N+](=O)[O-])c(=O)n(C)c(=O)n2C)cc1	< 0.2

Structure (SMILES)	solubility kinetic [µg/mL]
Cn1cccc1/C=C1/SC(=O)N(CC(=O)N2CCCC2)C1=O	15.2 (≈ 47.6 µM)
O=C1COc2ccc(C(=O)COC(=O)c3ccccn3)cc2N1	16.9 (≈ 54.1 µM)
COc1ccc(Nc2cc(Nc3ccccc3)ncn2)cc1	< 0.2
CC(C)C(NS(=O)(=O)c1cccc(C(F)(F)F)c1)C(=O)O (centres undefined)	> 48.8
CC(C)(C)OC(=O)NC(CC(=O)OCc1ccccc1)C(=O)O (centres undefined)	> 48.5
O=C(OCC(=O)N1CCCCCC1)c1ccc(F)cc1F	44.4 (≈ 149 µM)
COc1ccc(NC(=O)c2ccco2)cc1NC(=O)c1ccccc1	4.9 (≈ 14.6 µM)
Cc1ccc(S(=O)(=O)N2CCCCC2)cc1NC(=O)Cc1cccs1	20.6 (≈ 54.4 µM)
CCC(C)n1c(O)c(C=NC(C)c2ccccc2)c(=O)[nH]c1=S (centres undefined)	4.3 (≈ 13 µM)
CCC(C)[C@H](NC(=O)Nc1ccc(C)cc1C)C(=O)O (some centres undefined)	31.8 (≈ 114 µM)
Cc1ccc(Nc2ccc(C(=O)O)cc2[N+](=O)[O-])cc1	> 40.8
CCN(CC)CC(C)OC(=O)c1ccccc1Cl (centres undefined)	37.9 (≈ 140 µM)
CN(C)c1ccc(C2N(C)C(=O)c3ccccc3N2C)cc1 (centres undefined)	40.9 (≈ 138 µM)
CCN(CC)CCCNc1nc(N)c([N+](=O)[O-])c(NCCO)n1	> 49.1
COc1cc(OC)cc(C(=O)NCC(C)NC(=O)c2cc(OC)cc(OC)c2)c1 (centres undefined)	39.6 (≈ 98.4 µM)
COCC(=O)Nc1ccc(Br)c(C)c1	> 38.7
c1ccc(Cn2c(NCc3ccccn3)nc3ccccc32)cc1	> 47.2
CC(C)C(=O)N1CC(=O)Nc2ccc(F)cc2C1c1ccc(F)cc1 (centres undefined)	> 51.7
CC(=O)N1CCN(C(=O)c2ccc3c(c2)OCCO3)CC1	> 43.5
